In patent EP3131902B1, “COMPOUNDS AS MODULATORS OF ROR GAMMA” (Boehringer Ingelheim International GmbH, priority 2014, dated 2015):
Read-outs that look alike come from different tables or passages of the source.

Target: T1, RORγ (Homo sapiens, UniProt P51449)
T1 construct: expressed in transfected cells; host or cells: HEK 293 cells, transiently transfected
T1 sequence (P51449 269-508 limits assumed): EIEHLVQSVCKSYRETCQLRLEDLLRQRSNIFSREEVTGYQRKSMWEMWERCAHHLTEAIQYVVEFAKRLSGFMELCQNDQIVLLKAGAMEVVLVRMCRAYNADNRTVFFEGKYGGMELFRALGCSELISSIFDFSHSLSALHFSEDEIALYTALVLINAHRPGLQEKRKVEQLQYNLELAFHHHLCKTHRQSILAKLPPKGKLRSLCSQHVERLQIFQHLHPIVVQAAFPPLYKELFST
Test: Reporter Gene Assay (RGA): nuclear receptor transactivation assay, inhibition of RORγ transactivation of a luciferase reporter in transiently transfected HEK 293 cells
Format: cell-based

Row | IC50 (read-out: RGA IC50) | Compound | IC50
1 | – | CCc1ncnc(C2CC2)c1-c1ncc2nc(NCc3ccc(S(C)(=O)=O)cc3)c(=O)n([C@H](C)CC)c2n1 [Example 191] | 86 nM
2 | 455 nM | CCS(=O)(=O)N[C@H]1C[C@H](CNc2nc3cnc(-c4c(C)ncnc4C4CC4)nc3n([C@@H](C)C3CC3)c2=O)C1 [Example 202] | –
3 | 150 nM | CCc1ncnc(C2CC2)c1-c1ncc2nc(NCc3ccc(S(C)(=N)=O)cc3)c(=O)n([C@@H](C)C3CC3)c2n1 (some centres unmarked) [Example 210] | –
4 | 120 nM | Cc1ncnc(C2CC2)c1-c1ncc2nc(NCc3ccc4c(c3)CCS4(=O)=O)c(=O)n([C@@H](C)C3CC3)c2n1 [Example 212] | –
5 | 1380 nM | COC(=O)c1ccc(CNc2nc3cnc(-c4c(C)ncnc4C4CC4)nc3n([C@@H](C)C3CC3)c2=O)cc1 [Example 216] | –
6 | 160 nM | CCS(=O)(=O)c1ccc(CNc2nc3cnc(-c4c(C)nc(N)nc4C4CC4)nc3n([C@@H](C)C3CC3)c2=O)nc1 [Example 217] | –
7 | 120 nM | CC[C@@H](C)n1c(=O)c(NCc2ccc(S(=O)(=O)CC)nc2)nc2cnc(-c3c(C4CC4)ncnc3C3CC3)nc21 [Example 224] | –
8 | 530 nM | CO[C@H]1CCC[C@@H]1n1c(=O)c(NCc2ccc(S(C)(=O)=O)cc2)nc2cnc(-c3c(C)ncnc3C3CC3)nc21 [Example 229] | –
9 | 270 nM | COc1ncnc(C2CC2)c1-c1ncc2nc(NCc3ccc(S(C)(=O)=O)cc3)c(=O)n([C@H]3CCC[C@@H]3OC)c2n1 [Example 230] | –
10 | 180 nM | Cc1ncnc(C2CC2)c1-c1ncc2nc(NCc3ccc(S(C)(=N)=O)cc3)c(=O)n([C@@H](C)C3CCC3)c2n1 (some centres unmarked) [Example 232] | –
11 | 155 nM | CCS(=O)(=O)c1ccc(CNc2nc3cnc(-c4c(C)nc(N)nc4C4CC4)nc3n([C@H](C)C3CCC3)c2=O)nc1 [Example 233] | –
12 | 425 nM | CC[C@@H](C)n1c(=O)c(NCc2ccc(S(N)(=O)=O)cn2)nc2cnc(-c3c(C)ncnc3C3CC3)nc21 [Example 235] | –
13 | 185 nM | CC[C@@H](C)n1c(=O)c(NCc2ccc(S(N)(=O)=O)cn2)nc2cnc(-c3c(OC)ncnc3C3CC3)nc21 [Example 236] | –
14 | 205 nM | CNS(=O)(=O)c1ccc(CNc2nc3cnc(-c4c(OC)ncnc4C4CC4)nc3n(C3CCC3)c2=O)nc1 [Example 239] | –
15 | 310 nM | COc1ncnc(C2CC2)c1-c1ncc2nc(NCc3ccc(S(C)(=O)=O)cn3)c(=O)n(C3CCC3)c2n1 [Example 241] | –
16 | 395 nM | Cc1ncnc(C2CC2)c1-c1ncc2nc(NCc3ccc(S(C)(=O)=O)cn3)c(=O)n(C3CCC3)c2n1 [Example 242] | –
17 | 385 nM | Cc1ncnc(C2CC2)c1-c1ncc2nc(NCc3ccc(S(C)(=O)=O)cn3)c(=O)n(CC3CC3)c2n1 [Example 247] | –
18 | 158 nM | CCc1nc(N)nc(C2CC2)c1-c1ncc2nc(NCc3ccc(S(=O)(=O)C4CC4)cn3)c(=O)n([C@@H](C)C3CC3)c2n1 [Example 251] | –
19 | 325 nM | CCS(=O)(=O)c1ccc(CNc2nc3cnc(-c4c(C)ncnc4C4CC4)nc3n(CC(C)C)c2=O)nc1 [Example 252] | –
20 | 455 nM | Cc1ncnc(C2CC2)c1-c1ncc2nc(NCc3ccc(S(N)(=O)=O)cn3)c(=O)n(CC(C)C)c2n1 [Example 254] | –
21 | 285 nM | COc1ncnc(C2CC2)c1-c1ncc2nc(NCc3ccc(S(N)(=O)=O)cn3)c(=O)n(CC(C)C)c2n1 [Example 255] | –

Row | Compound | IC50 (read-out: RGA IC50) | IC50
22 | Cc1ncnc(C2CC2)c1-c1ncc2nc(NCc3ccc(C(=O)O)cc3)c(=O)n([C@@H](C)C3CC3)c2n1 [Example 200] | 855 nM | –
23 | CCS(=O)(=O)N1CC[C@@H](CNc2nc3cnc(-c4c(C)ncnc4C4CC4)nc3n([C@@H](C)C3CC3)c2=O)C1 [Example 211] | 225 nM | –
